From ChEMBL document CHEMBL3124825, “Benzimidazole: an emerging scaffold for analgesic and anti-inflammatory agents” (Eur J Med Chem, 2014)

Columns and labels:
Cannabinoid receptor 1 = Cannabinoid receptor 1 (Homo sapiens, UniProt P21554); assay: Agonist activity at human CB1 receptor
Cannabinoid receptor 2 = Cannabinoid receptor 2 (Homo sapiens, UniProt P34972); assay: Agonist activity at human CB2 receptor
Homo sapiens = species: Homo sapiens; assay: Selectivity ratio of Ki for human CB1 receptor to Ki for human CB2 receptor

Chain of Cannabinoid receptor 1 (P21554 whole entry): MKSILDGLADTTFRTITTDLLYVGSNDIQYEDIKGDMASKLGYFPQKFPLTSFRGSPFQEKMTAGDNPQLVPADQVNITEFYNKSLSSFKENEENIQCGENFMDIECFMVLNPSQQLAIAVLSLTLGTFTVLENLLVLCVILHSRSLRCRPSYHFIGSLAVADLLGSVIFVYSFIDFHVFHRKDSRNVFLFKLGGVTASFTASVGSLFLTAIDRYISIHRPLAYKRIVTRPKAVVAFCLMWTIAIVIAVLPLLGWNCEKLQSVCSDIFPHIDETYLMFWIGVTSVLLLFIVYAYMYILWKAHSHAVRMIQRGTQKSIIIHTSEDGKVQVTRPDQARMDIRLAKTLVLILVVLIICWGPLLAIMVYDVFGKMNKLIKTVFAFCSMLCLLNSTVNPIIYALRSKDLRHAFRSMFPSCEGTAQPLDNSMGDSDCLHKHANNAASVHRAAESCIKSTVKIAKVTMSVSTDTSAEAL
Chain of Cannabinoid receptor 2 (P34972 whole entry): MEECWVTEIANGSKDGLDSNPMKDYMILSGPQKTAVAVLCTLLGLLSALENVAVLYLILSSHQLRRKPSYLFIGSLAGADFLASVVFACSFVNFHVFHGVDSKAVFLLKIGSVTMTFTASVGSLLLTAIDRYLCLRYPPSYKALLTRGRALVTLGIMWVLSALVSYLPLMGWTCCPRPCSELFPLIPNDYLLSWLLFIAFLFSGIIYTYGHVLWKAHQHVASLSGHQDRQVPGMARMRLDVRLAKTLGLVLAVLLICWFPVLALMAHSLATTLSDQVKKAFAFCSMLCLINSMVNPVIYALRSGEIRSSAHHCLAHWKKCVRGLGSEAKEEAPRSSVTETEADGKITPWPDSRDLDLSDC

Structure (SMILES): CCOc1ccc(Cc2nc3cc(C(=O)N(C)CC)ccc3n2CCC(C)C)cc1
- Ki (Cannabinoid receptor 1): 3170 nM
- Ki (Cannabinoid receptor 2): 3.3 nM
- Ratio Ki (Homo sapiens): 970
